Results: PubChem BioAssay (NCI)
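Exposure lasted 48 hours, with cells grown in 96-well plates and compounds tested at five concentrations. Definition used: TGI = concentration required for complete inhibition of growth.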

Columns and labels:
Experiment in all cases: NCI-60 cell line screen, 48 h
EKVX NSCLC = system: EKVX NSCLC
SK-MEL-28 melanoma = system: SK-MEL-28 melanoma
SF-295 CNS = system: SF-295 CNS
NCI-H460 lung = system: NCI-H460 lung
PC-3 prostate = system: PC-3 prostate
NCI-H522 lung = system: NCI-H522 lung
OVCAR-4 ovarian = system: OVCAR-4 ovarian
COLO 205 colon = system: COLO 205 colon
HCC-2998 colon = system: HCC-2998 colon
A549 NSCLC = system: A549 NSCLC
HL-60(TB) leukemia = system: HL-60(TB) leukemia
IGROV1 ovarian = system: IGROV1 ovarian
M14 melanoma = system: M14 melanoma
HOP-62 NSCLC = system: HOP-62 NSCLC
RXF 393 renal = system: RXF 393 renal
TK-10 renal = system: TK-10 renal
SNB-19 CNS = system: SNB-19 CNS
NCI/ADR-RES ovarian = system: NCI/ADR-RES ovarian
MDA-MB-435 = system: MDA-MB-435
MDA-MB-231 breast = system: MDA-MB-231 breast
ACHN renal = system: ACHN renal
HCT-15 colon = system: HCT-15 colon
UACC-62 melanoma = system: UACC-62 melanoma
UO-31 renal = system: UO-31 renal
KM12 colon = system: KM12 colon
MDA-N = system: MDA-N
OVCAR-5 ovarian = system: OVCAR-5 ovarian
UACC-257 melanoma = system: UACC-257 melanoma
K-562 leukemia = system: K-562 leukemia
SK-MEL-5 melanoma = system: SK-MEL-5 melanoma
SF-539 CNS = system: SF-539 CNS
MALME-3M melanoma = system: MALME-3M melanoma
MOLT-4 leukemia = system: MOLT-4 leukemia
A498 renal = system: A498 renal
HT29 colon = system: HT29 colon
SW-620 colon = system: SW-620 colon
DU-145 prostate = system: DU-145 prostate
SK-MEL-2 melanoma = system: SK-MEL-2 melanoma
HCT-116 colon = system: HCT-116 colon
OVCAR-8 ovarian = system: OVCAR-8 ovarian
786-0 renal = system: 786-0 renal
T-47D breast = system: T-47D breast
SN12C renal = system: SN12C renal
MCF7 breast = system: MCF7 breast
CCRF-CEM leukemia = system: CCRF-CEM leukemia
SR leukemia = system: SR leukemia
SF-268 CNS = system: SF-268 CNS
HS 578T breast = system: HS 578T breast
NCI-H226 lung = system: NCI-H226 lung
RPMI-8226 leukemia = system: RPMI-8226 leukemia
LOX IMVI melanoma = system: LOX IMVI melanoma
SNB-75 CNS = system: SNB-75 CNS
CAKI-1 renal = system: CAKI-1 renal
OVCAR-3 ovarian = system: OVCAR-3 ovarian
NCI-H23 lung = system: NCI-H23 lung
HOP-92 NSCLC = system: HOP-92 NSCLC
BT-549 breast = system: BT-549 breast
SK-OV-3 ovarian = system: SK-OV-3 ovarian
U251 CNS = system: U251 CNS

COC1(OC)c2no[n+]([O-])c2C(OC)(OC)c2c1no[n+]2[O-]
TGI (EKVX NSCLC): 41.6 µM | TGI (SK-MEL-28 melanoma): 32.1 µM | TGI (SF-295 CNS): 80 µM | TGI (NCI-H460 lung): > 100 µM | TGI (PC-3 prostate): 66.6 µM | TGI (NCI-H522 lung): 47.5 µM | TGI (OVCAR-4 ovarian): > 100 µM | TGI (COLO 205 colon): 28.5 µM | TGI (HCC-2998 colon): 41.6 µM | TGI (A549 NSCLC): 82 µM | TGI (HL-60(TB) leukemia): 87.6 µM | TGI (IGROV1 ovarian): 51 µM | TGI (M14 melanoma): 26.9 µM | TGI (HOP-62 NSCLC): 35.8 µM | TGI (RXF 393 renal): 58.7 µM | TGI (TK-10 renal): 31.5 µM | TGI (SNB-19 CNS): 59.5 µM | TGI (NCI/ADR-RES ovarian): 62.8 µM | TGI (MDA-MB-435): 36.2 µM | TGI (MDA-MB-231 breast): 32.9 µM | TGI (ACHN renal): 68.5 µM | TGI (HCT-15 colon): 67.4 µM | TGI (UACC-62 melanoma): 24.3 µM | TGI (UO-31 renal): > 100 µM | TGI (KM12 colon): 24.2 µM | TGI (MDA-N): 62.8 µM | TGI (OVCAR-5 ovarian): 43.6 µM | TGI (UACC-257 melanoma): 25 µM | TGI (K-562 leukemia): > 100 µM | TGI (SK-MEL-5 melanoma): 28.6 µM | TGI (SF-539 CNS): 38 µM | TGI (MALME-3M melanoma): 29.4 µM | TGI (MOLT-4 leukemia): > 100 µM | TGI (A498 renal): 34.6 µM | TGI (HT29 colon): 37.7 µM | TGI (SW-620 colon): 35.8 µM | TGI (DU-145 prostate): > 100 µM | TGI (SK-MEL-2 melanoma): 42 µM | TGI (HCT-116 colon): 24.6 µM | TGI (OVCAR-8 ovarian): 26.7 µM | TGI (786-0 renal): 48.9 µM | TGI (T-47D breast): > 100 µM | TGI (SN12C renal): 54 µM | TGI (MCF7 breast): 42.7 µM | TGI (CCRF-CEM leukemia): 60.4 µM | TGI (SR leukemia): 31.6 µM | TGI (SF-268 CNS): 73.3 µM | TGI (HS 578T breast): 97.7 µM | TGI (NCI-H226 lung): 64 µM | TGI (RPMI-8226 leukemia): 87.8 µM | TGI (LOX IMVI melanoma): 33.5 µM | TGI (SNB-75 CNS): 83.3 µM | TGI (CAKI-1 renal): 92.9 µM | TGI (OVCAR-3 ovarian): 28.3 µM | TGI (NCI-H23 lung): 28.2 µM

C=C1C(=O)O[C@H]2[C@H]3O[C@@H](C[C@@H]12)[C@](C)(O)CC[C@@H]1O[C@@]1(C)CCC[C@H]3C
TGI (EKVX NSCLC): 54.6 µM | TGI (SK-MEL-28 melanoma): > 100 µM | TGI (SF-295 CNS): > 100 µM | TGI (NCI-H460 lung): 89 µM | TGI (HOP-92 NSCLC): 36.4 µM | TGI (PC-3 prostate): > 100 µM | TGI (NCI-H522 lung): 34.6 µM | TGI (OVCAR-4 ovarian): 51.8 µM | TGI (COLO 205 colon): 30 µM | TGI (HCC-2998 colon): 55.5 µM | TGI (A549 NSCLC): > 100 µM | TGI (HL-60(TB) leukemia): > 100 µM | TGI (IGROV1 ovarian): 46.2 µM | TGI (M14 melanoma): 29.3 µM | TGI (HOP-62 NSCLC): > 100 µM | TGI (RXF 393 renal): 26.9 µM | TGI (TK-10 renal): 32.6 µM | TGI (SNB-19 CNS): > 100 µM | TGI (NCI/ADR-RES ovarian): > 100 µM | TGI (MDA-MB-435): 42.2 µM | TGI (MDA-MB-231 breast): 65.8 µM | TGI (ACHN renal): 31.4 µM | TGI (HCT-15 colon): 37.9 µM | TGI (UACC-62 melanoma): 33.2 µM | TGI (UO-31 renal): 69.3 µM | TGI (KM12 colon): 57.3 µM | TGI (OVCAR-5 ovarian): > 100 µM | TGI (UACC-257 melanoma): 89.6 µM | TGI (K-562 leukemia): > 100 µM | TGI (SK-MEL-5 melanoma): 33.5 µM | TGI (SF-539 CNS): 53.7 µM | TGI (BT-549 breast): 31.5 µM | TGI (MALME-3M melanoma): 31 µM | TGI (MOLT-4 leukemia): > 100 µM | TGI (A498 renal): 73.2 µM | TGI (HT29 colon): 68.6 µM | TGI (SW-620 colon): 42.1 µM | TGI (DU-145 prostate): 33.4 µM | TGI (SK-MEL-2 melanoma): 43.6 µM | TGI (HCT-116 colon): 27.8 µM | TGI (OVCAR-8 ovarian): 47.5 µM | TGI (786-0 renal): 33.9 µM | TGI (T-47D breast): 82.4 µM | TGI (SN12C renal): 65.2 µM | TGI (MCF7 breast): 50.9 µM | TGI (CCRF-CEM leukemia): 58.2 µM | TGI (SR leukemia): > 100 µM | TGI (SF-268 CNS): 34.2 µM | TGI (SK-OV-3 ovarian): > 100 µM | TGI (HS 578T breast): > 100 µM | TGI (NCI-H226 lung): 60 µM | TGI (RPMI-8226 leukemia): > 100 µM | TGI (LOX IMVI melanoma): 35.7 µM | TGI (SNB-75 CNS): 96.1 µM | TGI (CAKI-1 renal): 27.6 µM | TGI (OVCAR-3 ovarian): 46.6 µM | TGI (U251 CNS): 84.5 µM | TGI (NCI-H23 lung): 41.7 µM
